pIC50: −log10 of the molar value. Like-named read-outs stand apart in the source and are kept apart here.
Legend:
Format in all cases: cell-based
C8161 = assay: Apoptosis assay (Cellomics, nucleus condensation); conditions: Homo sapiens, Table III, read-out: Apoptosis induction in C8161
Text: (§1) The Cellomics BioApplication (Thermo Fischer Cellomics Products, Pittsburgh, Pa.) is an automated image analysis algorithm that provides detailed analysis of phenotypes related to apoptosis. As one of the most prominent characteristics of apoptotics cell a nucleus condensation takes place. This can be measured fluorescence signal intensity using a CCD camera on fully automated microscope system. The Cellomics system is able to quantify the fluorescence intensity per single nucleus and calculates the variation of signal intensity in each cell population. […] Additionally the number of detected cell decreases normally in apoptotic cell populations. In detail 5000 cell per 96 well were labeled with DNA intercalating dye (Hoechst 33342, Sigma, Steinheim, Germany) to visualize the nucleus in a fluorescence microscope under live conditions. The apoptosis assay was performed 24 h and 48 h after addition of compound at concentrations 12.5 μM, 6.25 μM, 3.125 μM, 1.56 μM, 0.78 μM, 0.39 μM as well as DMSO control for 48 h.

SF126 = assay: Apoptosis assay (Cellomics, nucleus condensation); conditions: Homo sapiens, SF-126, Table III, read-out: Apoptosis induction in SF126
Text: as §1

U118 = assay: Apoptosis assay (Cellomics, nucleus condensation); conditions: Table III, read-out: Apoptosis induction in U118
Text: as §1

Hs578T [1] = assay: Apoptosis assay (Cellomics, nucleus condensation); conditions: Homo sapiens, Hs-578T, Table III, read-out: Apoptosis induction in Hs578T
Text: as §1

SF763 = assay: Apoptosis assay (Cellomics, nucleus condensation); conditions: Table III, read-out: Apoptosis induction in SF763
Text: as §1

U138 = assay: Apoptosis assay (Cellomics, nucleus condensation); conditions: Table III, read-out: Apoptosis induction in U138
Text: as §1

indicated cell line = assay: Wound healing migration assay (Table IV); conditions: compounds at 12.5, 6.25, 3.125 μM, 48 h-72 h
Method: This method mimics cell migration during wound healing in vivo. The basic steps involve creating a “wound” in a cell monolayer, capturing the images at the beginning and at regular intervals during cell migration to close the wound, and comparing the images to quantify the migration rate of the cells. In detail, 150000 cell/24 well have been seeded and allowed to form a monolayer overnight. Subsequently a “wound” or “scratch” has been performed with a 1000 μl pipette tip. The STDV of wound size is normally below 10% at time point t0. The assay was stopped by fixation with 0.05% Crystal violet/20% methanol when control scratches were closed. The assay was terminated between 48 h and 72 h depending on the migration potential of the indicated cell line. The “wounds” were visualized with a Zeiss Axiovert S100 microscope (Carl Zeiss UK, Welwyn Garden City, UK). The tested compounds were used at 12.5 μM, 6.25, 3.125 μM and DMSO control. IC50 values have been calculated as 50% wound size in between t0 and t48 or t72.

tumor cell = assay: Matrigel outgrowth assay/branching assay (Table Va)
Method: The Matrigel outgrowth assay is based on the ability of tumor cell to penetrate a solid gel of extracellular matrix proteins mimicking the metastasis formation in vivo. While cells with low invasive potential appear as roundish cell or cell cluster, cells with high invasive potential penetrate the Matrigel and form polymorphic structures. In detail 65 μl of Matrigel matrix (Matrigel™ Matrix, BD Biosciences, Bedford, Mass., USA) with a concentration of 3 mg/ml have been polymerized in 96 well plates for 1 h at 37° C. Subsequently 5000 cell/well were seeded into each well containing cell culture medium and indicated compound with concentrations of 3.125 μM, 1.56 μM and 0.78 μM as well as DMSO control. After 48 h, 72 h and 96 h images of cell were taken on an inverted microscope using a 5× objective (Zeiss Axiovert S100 microscope Carl Zeiss UK, Welwyn Garden City, UK). Only compound concentrations were total branching inhibition was evident were accounted as positive. Method was used as previously described, with some modifications (Thompson E W, et al. Association of increased basement membrane invasiveness with absence of estrogen receptor and expression of vimentin in human breast cancer cell lines. J Cell Physiol 1992; 150:534-44).

viable cells in culture = assay: Cell viability assay at 10 μM (CellTiter-Glo, Table VII); conditions: compound 10 μM, 72 h;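 further: graded A 0-20%; B 21-40%; C 41-60%; D over 60% viable cells relative to DMSO control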
In short: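 Cells were seeded at 1000 cells/well in 96-well plates in 100 μl culture medium and incubated for 72 h with 10 μM compound or a DMSO control. ATP content, which reflects metabolically active and therefore viable cells, was then determined by CellTiter-Glo luminescence (Promega) per the manufacturer's instructions and expressed relative to the DMSO control.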

cells = assay: Boyden chamber migration assay (Table VI); conditions: Homo sapiens, Hs-578T, 16 h, Hs578T cells; 16 h migration
Method: The Boyden chamber assay is based on a chamber of two medium-filled compartments separated by a microporous membrane of 8 μM (Cell culture insert 8.0 μM pore size, BD Biosciences, Bedford, Mass.). The boyden chamber migration assays were carried out according to the supplier's instructions. In general, 20000 cells are placed in the upper compartment with medium containing 0% FCS plus 0.1% BSA and are allowed to migrate 16 h through the pores of the membrane into the lower compartment, which is filled with cell culture medium containing 10% FCS as chemotactic agents. The cells remaining in the insert were removed with a cotton swab, and the cells on the bottom of the filter were fixed and counted. (Zhang Y X, et al. AXL is a potential target for therapeutic intervention in breast cancer progression. Cancer Res. 2008; 68:1905-15).

Hs578T [2] = assay: Matrigel outgrowth assay/branching assay; conditions: Homo sapiens, Hs-578T; HS578T cell line; Table Ib; read-out: Total branching inhibition in Matrigel HS578T
In short: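 Invasive outgrowth into a 3 mg/ml Matrigel gel is judged from images taken after 48, 72 and 96 h of exposure to 3.125, 1.56 or 0.78 μM compound, with DMSO as control. Positive means total inhibition of branching.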

[3] = Homo sapiens, C8161 cells, read-out: IC50 Wound healing Assay C8161
[4] = SF763 cells, read-out: IC50 Wound healing Assay SF763
[5] = Homo sapiens, C8161 cells, read-out: Total branching inhibition in Matrigel C8161
[6] = Homo sapiens, Hs-578T, Hs578T cells, read-out: Total branching inhibition in Matrigel Hs578T
[7] = U118 cells, read-out: Total branching inhibition in Matrigel U118
[8] = U138 cells, read-out: Total branching inhibition in Matrigel U138
[9] = Homo sapiens, HCT-116, HCT116 def, read-out: percentage (%) of viable cells HCT 116def
[10] = Homo sapiens, HCT-116, HCT116 wt, read-out: percentage (%) of viable cells HCT 116wt
[11] = Homo sapiens, HT-29, HT29, read-out: percentage (%) of viable cells HT29
[12] = Homo sapiens, NCI-H358, H358, read-out: percentage (%) of viable cells H358
[13] = Homo sapiens, NCI-H1650, H1650, read-out: percentage (%) of viable cells H1650
[14] = Homo sapiens, NCI-H1666, H1666, read-out: percentage (%) of viable cells H1666
[15] = Homo sapiens, NCI-H1975, H1975, read-out: percentage (%) of viable cells H1975
[16] = Homo sapiens, NCI-H1993, H1993, read-out: percentage (%) of viable cells H1993
[17] = Homo sapiens, A549, read-out: percentage (%) of viable cells A549
[18] = Homo sapiens, HCC827, read-out: percentage (%) of viable cells HCC827
[19] = Homo sapiens, SW480, read-out: percentage (%) of viable cells SW480
[20] = RKO, read-out: percentage (%) of viable cells RKO

| Compound | pIC50 (C8161) | pIC50 (SF126) | pIC50 (U118) | pIC50 (Hs578T [1]) | pIC50 (SF763) | pIC50 (U138) | pIC50 (indicated cell line; [3]) | pIC50 (indicated cell line; [4]) | pIC50 (tumor cell; [5]) | pIC50 (tumor cell; [6]) | pIC50 (tumor cell; [7]) | pIC50 (tumor cell; [8]) | viability at 10 µM (viable cells in culture; [9]) | viability at 10 µM (viable cells in culture; [10]) | viability at 10 µM (viable cells in culture; [11]) | viability at 10 µM (viable cells in culture; [12]) | viability at 10 µM (viable cells in culture; [13]) | viability at 10 µM (viable cells in culture; [14]) | viability at 10 µM (viable cells in culture; [15]) | viability at 10 µM (viable cells in culture; [16]) | further results |
| --- | --- | --- | --- | --- | --- | --- | --- | --- | --- | --- | --- | --- | --- | --- | --- | --- | --- | --- | --- | --- | --- |
| COc1cc2c(Oc3ccc(NS(=O)(=O)c4cc(F)ccc4F)cc3F)ccnc2cc1OCC1CCCNC1 (centres unmarked) [Example 80, 2,5-Difluoro-N-{3-fluoro-4-[6-methoxy-7-(piperidin-3-ylmethoxy)-quinolin-4-yloxy]-phenyl}-benzenesulfonamide] | 4.30 to 4.90 | 4.30 to 4.90 | ≥ 4.90 | ≥ 4.90 | 4.30 to 4.90 | 4.30 to 4.90 | ≥ 4.90 | ≥ 4.90 | ≥ 5.30 | ≥ 5.30 | ≥ 5.30 | 4.30 to 5.30 | 21 to 40% | 21 to 40% | 41 to 60% | 0 to 20% | > 60% | 21 to 40% | 0 to 20% | 0 to 20% | viability at 10 µM (viable cells in culture; [17]): > 60%; viability at 10 µM (viable cells in culture; [18]): 21 to 40%; viability at 10 µM (viable cells in culture; [19]): 0 to 20%; viability at 10 µM (viable cells in culture; [20]): 0 to 20%; pIC50 (cells): ≥ 5.30 |
| O=S(=O)(Nc1ccc(Oc2ccnc3cc(OCCCCN4CCOCC4)ccc23)c(F)c1)c1cc(F)ccc1F [Example 84, 2,5-Difluoro-N-{3-fluoro-4-[7-(4-morpholin-4-yl-butoxy)-quinolin-4-yloxy]-phenyl}-benzenesulfonamide] | ≥ 4.90 | ≥ 4.90 | ≥ 4.90 | ≥ 4.90 | ≥ 4.90 | ≥ 4.90 | ≥ 4.90 | 4.30 to 4.90 | ≥ 5.30 | ≥ 5.30 | ≥ 5.30 | ≥ 5.30 | 0 to 20% | 0 to 20% | 0 to 20% | 0 to 20% | 0 to 20% | 41 to 60% | 21 to 40% | 0 to 20% | pIC50 (Hs578T [2]): ≥ 5.00; viability at 10 µM (viable cells in culture; [17]): > 60%; viability at 10 µM (viable cells in culture; [18]): > 60%; viability at 10 µM (viable cells in culture; [19]): 0 to 20%; viability at 10 µM (viable cells in culture; [20]): 0 to 20%; pIC50 (cells): ≥ 5.30 |
| CN1CCN(CCCOc2ccc3nccc(Oc4ccc(NS(=O)(=O)c5ccccc5C(F)(F)F)cc4F)c3c2)CC1 [Example 85, N-(3-Fluoro-4-{6-[3-(4-methyl-piperazin-1-yl)-propoxy]-quinolin-4-yloxy}-phenyl)-2-trifluoromethyl-benzenesulfonamide] | ≥ 4.90 | ≥ 4.90 | 4.30 to 4.90 | ≥ 4.90 | ≥ 4.90 | ≥ 4.90 | ≥ 4.90 | 4.30 to 4.90 | ≥ 5.30 | ≥ 5.30 | ≥ 5.30 | 4.30 to 5.30 | 21 to 40% | 0 to 20% | 21 to 40% | 21 to 40% | 21 to 40% | 41 to 60% | 21 to 40% | 0 to 20% | pIC50 (Hs578T [2]): ≥ 5.00; viability at 10 µM (viable cells in culture; [17]): 41 to 60%; viability at 10 µM (viable cells in culture; [18]): 0 to 20%; viability at 10 µM (viable cells in culture; [19]): 0 to 20%; viability at 10 µM (viable cells in culture; [20]): 0 to 20%; pIC50 (cells): ≥ 5.30 |
